Assay results reported in patent US10966996B2, “Glechoma longitube extract, preparation method for same, and use thereof in sugar reduction, weight loss, and lipid reduction” (SHANGHAI INSTITUTE OF MATERIA MEDICA CHINESE ACADEMY OF …, priority 2014, dated 2021).
“Also recorded” adds a separate entry of the source.

Experiments:
porcine pancrelipase = molecular target: T1, porcine pancrelipase (Sus scrofa, UniProt P00591); assay: inhibitory activity against pancrelipase (p-Nitrophenyl acetate substrate); assay type: biochemical; conditions: read-out: Inhibition rate % (50 μM) against pancrelipase
T1 construct: purchased Sigma
T1 sequence (P00591 1-450): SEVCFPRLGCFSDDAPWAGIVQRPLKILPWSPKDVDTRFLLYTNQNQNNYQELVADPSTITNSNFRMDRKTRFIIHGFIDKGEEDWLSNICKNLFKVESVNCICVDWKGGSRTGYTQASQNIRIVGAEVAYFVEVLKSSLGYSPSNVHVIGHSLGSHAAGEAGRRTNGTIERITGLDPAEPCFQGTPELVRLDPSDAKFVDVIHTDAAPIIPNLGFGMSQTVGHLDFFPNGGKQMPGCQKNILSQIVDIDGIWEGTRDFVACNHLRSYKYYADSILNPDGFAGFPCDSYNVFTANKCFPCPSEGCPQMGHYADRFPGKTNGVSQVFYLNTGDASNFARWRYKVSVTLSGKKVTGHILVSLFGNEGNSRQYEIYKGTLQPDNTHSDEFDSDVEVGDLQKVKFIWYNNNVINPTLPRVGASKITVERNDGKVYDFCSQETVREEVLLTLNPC
Source text: OD compound, OD blank, and OD negative control represented the fluorescence values from a compound well, a blank well, and a negative control well free of DGAT1 enzyme, and the concentrations of the compounds when the enzyme activity inhibition rate (%) reached 50% were set as IC50 value; (3) inhibitory activity of the individual compounds separated from the extract of Glechoma longituba (Nakai) Kupr., LQC-H-1, against pancrelipase: substrate p-Nitrophenyl acetate (Sigma, USA) was formulated to 1.35 mM with phosphate buffer (25 mM, pH 6.8); porcine pancrelipase (Sigma) was formulated to 10 mg/ml with phosphate buffer; brominated eneyne compounds were formulated to solutions of different concentrations with phosphate buffer. Then, 50 μl of 1.35 mM p-Nitrophenyl acetate (Sigma, USA) solution and 10 μl of test compounds of different concentrations were sequentially added into a 96-well plate and pre-incubated at 37° C. for 5 mins. Finally, 50 μl of 10 mg/ml pancrelipase (EC 3.1.1.3, Sigma, USA) was added and mixed. The reaction proceeded at 37° C. for further 20 mins Absorbance of each well was measured at 492 nm. The inhibition rates (%) of the test samples against pancrelipase were calculated based on the absorbance at 492 nm. The concentrations of the compounds when then enzyme activity inhibition rate (%) reached 50% was set as IC50 value. The inhibition rate (%) could be calculated according to the following formula: Inhibition rate (%)=[(A−B)−(C−D)]/(A−B)×100
In the above formula, A, B, C, and D represented the absorbance of a blank well after the reaction, the absorbance of a blank well prior to the reaction, the absorbance of a sample well after the reaction, and the absorbance of a sample well prior to the reaction.

glucose oxidase (GOX) = molecular target: T2, glucose oxidase (GOX) (Homo sapiens, UniProt Q9UJM8); assay: inhibitory activity against glucose oxidase (GOX), enzyme coupling method with glycolic acid substrate; assay type: biochemical; parameters: Vmax: unit not given here; conditions: for inhibition at 0.1 µM / inhibition at 0.3 µM / inhibition at 1 µM / inhibition at 3 µM / inhibition at 10 µM / inhibition at 30 µM / inhibition at 100 µM: read-out: Inhibition rate; for IC50: fitted by Graphpad Prism 5.0, tested 100 μM-0.1 μM
T2 sequence (Q9UJM8 1-370): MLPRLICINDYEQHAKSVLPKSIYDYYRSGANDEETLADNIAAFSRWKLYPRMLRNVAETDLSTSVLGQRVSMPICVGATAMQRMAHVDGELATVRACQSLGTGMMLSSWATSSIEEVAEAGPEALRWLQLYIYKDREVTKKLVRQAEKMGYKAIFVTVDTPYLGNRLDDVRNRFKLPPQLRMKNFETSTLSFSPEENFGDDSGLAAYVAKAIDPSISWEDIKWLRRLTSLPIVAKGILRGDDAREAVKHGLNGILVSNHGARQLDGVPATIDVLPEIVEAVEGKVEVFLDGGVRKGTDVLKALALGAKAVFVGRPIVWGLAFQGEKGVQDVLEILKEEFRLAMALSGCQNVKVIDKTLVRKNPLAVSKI
Description: Mechanism of experiment: enzyme coupling method utilizes peroxidase (POD) and substrates thereof to react with generated H2O2 to produce colored products so as to determine the catalytic reaction rate of glucose oxidase. POD catalyzes H2O2 to react with phenol and 4-amino antipyrine to produce brown-red quinone substances.
Experimental method: reagents were added according to the table below; the reaction was immediately initiated upon the final addition of substrate glycolic acid; the kinetic course of the reaction was detected by microplate reader; the enzyme activity was represented by Vmax, maximum reaction velocity.
The measurement results were fitted by Graphpad Prism 5.0 to calculate IC50 values.

C57BL/KsJ mice = assay: acute oral glucose tolerance test (OGTT) and blood insulin in mice; assay type: in vivo; conditions: for acute oral glucose tolerance in mice: both 100 mg/kg and 200 mg/kg; for acute oral glucose tolerance in mice, compared with Sitagliptin (10 mg/kg): higher dose (200 mg/kg)
Description: Oral glucose tolerance test (OGTT) method: 8-week old male C57BL/KsJ mice (Shanghai Slac Laboratory Animal Company), 8 for each group, weight of 20±2 g, were fed according to SPF grade operation procedure and fasted for 16 hours prior to experiment. Blood was collected from tail vein of each group of mice prior to experiment. Blood glucose concentrations were measured using Roche ACCU-CHEK glucometer and recorded as time 0. Different concentrations of the compound were intragastric administrated to each administration group of mice, respectively. Equal volume of distilled water was given to control group of mice. The dosage volume was 10 ml/kg. Half an hour after administration, 5 g/kg glucose was intragastric administrated to each group of mice. Blood glucose concentrations of each group of mice were measured and recorded at 20 mins, 40 mins, and 80 mins after the intragastric administration. OGTT curves were recorded. Areas under the curves (AUC) were calibrated with the data in blood glucose of mice to which glucose was not given (calibration group). ONE-WAY-ANOVA was used to compare significant difference between each group (Note: all the experimental methods for acute oral glucose tolerance test in the following activity examples are the same to the experimental method in Example 5, unless otherwise indicated). Blood was collected from tail vein at 20 mins after oral administration of glucose for mice. ELISA (kit was bought from Millipore, USA) was utilized for measuring blood insulin level of mice.

db/db mice = assay: long term administration of Compound I in db/db mice; assay type: in vivo; conditions: 50 mg/kg once a day
Description: After the end of the acute experiment, each group of mice undergone long term administration experiment following the grouping in below: equal volume of distilled water was given to control group of mice; Compound I at the dosage of 50 mg/kg was given to administration group; DDP4 inhibitor, Sitagliptin, at 10 mg/kg was intragastric administrated to positive control group. Dosage volume was 10 ml/kg, once a day for 4 weeks. Weight, blood glucose, and dietary change of the mice were monitored every week. The improvement of diabetic symptom of spontaneous diabetes mellitus type 2 model db/db mice by long term administration of Compound I was evaluated.

[1] = two weeks after the administration

Row | inhibition at 50 µM (porcine pancrelipase) [%] | Vmax (glucose oxidase (GOX); 0.1 μM) | inhibition at 0.1 µM (glucose oxidase (GOX); 0.1 μM) [%] | Vmax (glucose oxidase (GOX); 0.3 μM) | inhibition at 0.3 µM (glucose oxidase (GOX); 0.3 μM) [%] | Vmax (glucose oxidase (GOX); 1 μM) | inhibition at 1 µM (glucose oxidase (GOX); 1 μM) [%] | Vmax (glucose oxidase (GOX); 3 μM) | inhibition at 3 µM (glucose oxidase (GOX); 3 μM) [%] | Vmax (glucose oxidase (GOX); 10 μM) | inhibition at 10 µM (glucose oxidase (GOX); 10 μM) [%] | Vmax (glucose oxidase (GOX); 30 μM) | inhibition at 30 µM (glucose oxidase (GOX); 30 μM) [%] | Vmax (glucose oxidase (GOX); 100 μM) | inhibition at 100 µM (glucose oxidase (GOX); 100 μM) [%] | IC50 (glucose oxidase (GOX)) [µM] | SMILES | acute oral glucose tolerance in mice (C57BL/KsJ mice) | acute oral glucose tolerance in mice, compared with Sitagliptin (10 mg/kg) (C57BL/KsJ mice) | other results
1 | 41.6 | 36.05 ± 0.85 | -1.04 ± 2.39 | 36.35 ± 0.84 | -1.88 ± 2.35 | 35.42 ± 0.43 | 0.74 ± 1.19 | 35.85 ± 1.03 | -0.48 ± 2.9 | 35.63 ± 1.00 | 0.15 ± 2.81 | 33.88 ± 0.98 | 5.05 ± 2.76 | 29.13 ± 0.80 | 18.4 ± 2.23 | 400 | O=C(O)C1O[C@@H](OC2C(O)[C@H](O)C(C(=O)O)O[C@H]2Oc2cc(O)c3c(=O)cc(-c4ccc(O)cc4)oc3c2)C(O)C(O)[C@@H]1O (stereo partly drawn) [Compound II, apigenin-7-O-[β-glucuronosyl(1→2)β-glucuronic acid]] | significantly enhance acute oral glucose tolerance | activity comparable to the commercial chemical drug, Sitagliptin | 
2 | 41.9 | 35.13 ± 0.22 | 1.54 ± 0.62 | 35.47 ± 0.98 | 0.6 ± 2.74 | 35.36 ± 0.65 | 0.9 ± 1.82 | 35.39 ± 0.63 | 0.83 ± 1.77 | 35.08 ± 0.21 | 1.69 ± 0.58 | 34.04 ± 0.65 | 4.6 ± 1.82 | 29.34 ± 0.10 | 17.8 ± 0.29 | 500 | O=C(O)C1O[C@@H](OC2C(O)[C@H](O)C(C(=O)O)O[C@H]2Oc2cc(O)c3c(=O)cc(-c4ccc(O)c(O)c4)oc3c2)C(O)C(O)[C@@H]1O (stereo partly drawn) [Compound I, luteolin-7-O-[β-glucuronosyl(1→2)β-glucuronic acid]] | significantly enhance acute oral glucose tolerance | activity comparable to the commercial chemical drug, Sitagliptin | weight and diet of the mice (db/db mice): did not significantly affect the weight and diet of the mice; fasting blood glucose (db/db mice; [1]): significantly decreased; also recorded: lowered fasting blood glucose of mice; instant blood glucose (db/db mice; [1]): significantly decreased; also recorded: lowered instant blood glucose of mice
